Source: patent publication US9593123B2, “Triazolo[4,5-D]pyrimidine derivatives” (Hoffmann-La Roche Inc., priority 2013, dated 2017)

How the values were obtained:
human CB1 receptor = human CB1 receptor (Homo sapiens (Human), UniProt P21554); assay: cAMP assay, CHO cells expressing human CB1 receptors; type: cell-based; settings: functional cAMP assay, read-out: CB1 hcAMP EC50
Experimental: (§1) CHO cells expressing human CB1 or CB2 receptors are seeded 17-24 hours prior to the experiment 50.000 cells per well in a black 96 well plate with flat clear bottom (Corning Costar #3904) in DMEM (Invitrogen No. 31331), 1×HT supplement, with 10% fetal calf serum and incubated at 5% CO2 and 37° C. in a humidified incubator. The growth medium was exchanged with Krebs Ringer Bicarbonate buffer with 1 mM IBMX and incubated at 30° C. for 30 min. Compounds were added to a final assay volume of 100 μl and incubated for 30 min at 30° C. Using the cAMP-Nano-TRF detection kit the assay (Roche Diagnostics) was stopped by the addition of 50 μl lysis reagent (Tris, NaCl, 1.5% Triton X100, 2.5% NP40, 10% NaN3) and 50 μl detection solutions (20 μM mAb Alexa700-cAMP 1:1, and 48 μM Ruthenium-2-AHA-cAMP) and shaken for 2 h at room temperature. The time-resolved energy transfer is measured by a TRF reader (Evotec Technologies GmbH), equipped with a ND:YAG laser as excitation source. The plate is measured twice with the excitation at 355 nm and at the emission with a delay of 100 ns and a gate of 100 ns, total exposure time 10 s at 730 (bandwidth 30 nm) or 645 nm (bandwidth 75 nm), respectively. The FRET signal is calculated as follows: FRET=T730-Alexa730-P(T645-B645) with P=Ru730-B730/Ru645-B645, where T730 is the test well measured at 730 nM, T645 is the test well measured at 645 nm, B730 and B645 are the buffer controls at 730 nm and 645 nm, respectively. cAMP content is determined from the function of a standard curve spanning from 10 μM to 0.13 nM cAMP.
(§2) EC50 values were determined using Activity Base analysis (ID Business Solution, Limited). The EC50 values for a wide range of cannabinoid agonists generated from this assay were in agreement with the values published in the scientific literature.

human CB2 receptor = human CB2 receptor (Homo sapiens (Human), UniProt P34972); assay: cAMP assay, CHO cells expressing human CB2 receptors; type: cell-based; settings: functional cAMP assay, read-out: CB2 hcAMP EC50
Experimental: as §1, §2

human CB1 receptor, sequence (P21554 whole entry): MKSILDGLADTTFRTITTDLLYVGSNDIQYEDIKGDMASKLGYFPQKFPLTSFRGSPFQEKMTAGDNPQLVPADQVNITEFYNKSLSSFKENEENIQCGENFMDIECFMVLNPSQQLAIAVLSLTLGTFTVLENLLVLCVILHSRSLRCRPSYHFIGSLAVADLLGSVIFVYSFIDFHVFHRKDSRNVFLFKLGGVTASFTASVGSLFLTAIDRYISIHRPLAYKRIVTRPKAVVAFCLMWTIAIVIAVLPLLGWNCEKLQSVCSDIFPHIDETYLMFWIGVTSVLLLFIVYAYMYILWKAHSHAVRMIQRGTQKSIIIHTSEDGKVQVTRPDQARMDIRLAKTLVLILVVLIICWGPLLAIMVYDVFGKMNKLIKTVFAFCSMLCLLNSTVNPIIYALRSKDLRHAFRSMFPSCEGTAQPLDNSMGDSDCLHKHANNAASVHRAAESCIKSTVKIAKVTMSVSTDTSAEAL
human CB2 receptor, sequence (P34972 whole entry): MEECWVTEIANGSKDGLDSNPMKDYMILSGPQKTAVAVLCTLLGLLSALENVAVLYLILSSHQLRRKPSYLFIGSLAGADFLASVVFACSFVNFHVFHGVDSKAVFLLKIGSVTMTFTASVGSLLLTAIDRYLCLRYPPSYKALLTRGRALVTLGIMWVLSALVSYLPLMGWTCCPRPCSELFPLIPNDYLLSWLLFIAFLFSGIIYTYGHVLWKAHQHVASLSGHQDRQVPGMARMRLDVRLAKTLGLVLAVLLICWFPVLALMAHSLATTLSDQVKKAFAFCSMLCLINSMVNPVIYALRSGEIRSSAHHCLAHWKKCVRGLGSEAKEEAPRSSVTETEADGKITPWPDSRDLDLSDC

Which EC50 (human CB1 receptor) does the source give for `C[C@H](Oc1nc(N2CCC(F)(F)C2)c2nnn(Cc3ncccc3Cl)c2n1)C(F)(F)F` [Example 70, 3-[(3-Chloropyridin-2-yl)methyl]-7-(3,3-difluoropyrrolidin-1-yl)-5-[(2S)-1,1,1-trifluoropropan-2-yl]oxytriazolo[4,5-d]pyrimidine] here?
Its EC50 is over 10 µM.

And the EC50 (human CB2 receptor)?
Its EC50 is 5.1 nM.

How did the EC50 (human CB1 receptor) turn out when `FC1(F)CCN(c2nc(N3CCOCC3)nc3c2nnn3Cc2ccccc2Cl)C1` [Example 14, 4-[3-[(2-Chlorophenyl)methyl]-7-(3,3-difluoropyrrolidin-1-yl)triazolo[4,5-d]pyrimidin-5-yl]morpholine] was run?
Its EC50 is over 10 µM.

What about the EC50 (human CB2 receptor) of the same compound?
The EC50 was 3.5 nM.

How did the EC50 (human CB1 receptor) turn out when `CC(C)Oc1nc(N2CC[C@H](O)C2)c2nnn(Cc3ccccc3Cl)c2n1` [Example 62, (3S)-1-[3-[(2-Chlorophenyl)methyl]-5-propan-2-yloxytriazolo[4,5-d]pyrimidin-7-yl]pyrrolidin-3-ol] was run?
The EC50 was over 10 µM.

What about the EC50 (human CB2 receptor) of the same compound?
Its EC50 is 14.8 nM.

For `CC(C)(C)Nc1nc(N2CCC(F)(F)C2)c2nnn(Cc3ncccc3Cl)c2n1` [Example 24, N-tert-Butyl-3-[(3-chloropyridin-2-yl)methyl]-7-(3,3-difluoropyrrolidin-1-yl)triazolo [4,5-d]pyrimidin-5-amine], which EC50 (human CB1 receptor) is on record?
Its EC50 is over 10 µM.

And the EC50 (human CB2 receptor)?
Its EC50 is 3.4 nM.

`C[C@H](Oc1nc(N2CCC(F)(F)C2)c2nnn(Cc3nnnn3C3CC3)c2n1)C(F)(F)F` [Example 76, 3-[(1-Cyclopropyltetrazol-5-yl)methyl]-7-(3,3-difluoropyrrolidin-1-yl)-5-[(2S)-1,1,1-trifluoropropan-2-yl]oxytriazolo[4,5-d]pyrimidine] was tested. Which EC50 (human CB1 receptor) did it give?
Its EC50 is over 10 µM.

What about the EC50 (human CB2 receptor) of the same compound?
The EC50 was 17.7 nM.

How did the EC50 (human CB1 receptor) turn out when `CCSc1nc(N2CCC(F)(F)C2)c2nnn(Cc3ccccc3Cl)c2n1` [Example 82, 3-[(2-Chlorophenyl)methyl]-7-(3,3-difluoropyrrolidin-1-yl)-5-ethylsulfanyltriazolo [4,5-d]pyrimidine] was run?
Its EC50 is 0.183 µM.

And the EC50 (human CB2 receptor)?
Its EC50 is 0.7 nM.

What does the source list for `FC1(F)CCN(c2nc(C3CCC3)nc3c2nnn3Cc2ccccc2Cl)C1` [Example 1, 3-[(2-Chlorophenyl)methyl]-5-cyclobutyl-7-(3,3-difluoropyrrolidin-1-yl)triazolo[4,5-d]pyrimidine]?
EC50 (human CB1 receptor): > 10 µM; EC50 (human CB2 receptor): 1 nM

With `CCCCS(=O)(=O)c1nc(N2CCC(F)(F)C2)c2nnn(Cc3ccccc3Cl)c2n1` [Example 93, 5-Butylsulfonyl-3-[(2-chlorophenyl)methyl]-7-(3,3-difluoropyrrolidin-1-yl)triazolo [4,5-d]pyrimidine] as the compound, how does the EC50 (human CB1 receptor) read?
Its EC50 is over 10 µM.

What about the EC50 (human CB2 receptor) of the same compound?
Its EC50 is 8.8 nM.

Which EC50 (human CB1 receptor) does the source give for `O[C@H]1CCN(c2nc(OCC(F)(F)F)nc3c2nnn3Cc2ccccc2Cl)C1` [Example 60, (3S)-1-[3-[(2-Chlorophenyl)methyl]-5-(2,2,2-trifluoroethoxy)triazolo[4,5-d]pyrimidin-7-yl]pyrrolidin-3-ol] here?
Its EC50 is over 10 µM.

What about the EC50 (human CB2 receptor) of the same compound?
The EC50 was 0.8 nM.

How did the EC50 (human CB1 receptor) turn out when `CC(C)Oc1nc(N2CC[C@H](O)C2)c2nnn(Cc3nnnn3C)c2n1` [Example 64, (3S)-1-[3-[(1-Methyltetrazol-5-yl)methyl]-5-propan-2-yloxytriazolo[4,5-d]pyrimidin-7-yl]pyrrolidin-3-ol] was run?
Its EC50 is over 10 µM.

And the EC50 (human CB2 receptor)?
Its EC50 is 174 nM.

Which EC50 (human CB1 receptor) does the source give for `FC(F)(F)CSc1nc(N2CCC(F)(F)C2)c2nnn(Cc3ccccc3Cl)c2n1` [Example 83, 3-[(2-Chlorophenyl)methyl]-7-(3,3-difluoropyrrolidin-1-yl)-5-(2,2,2-trifluoroethylsulfanyl)triazolo[4,5-d]pyrimidine] here?
The EC50 was over 10 µM.

And the EC50 (human CB2 receptor)?
The EC50 was 1.9 nM.

Which results are given for `CCS(=O)(=O)c1nc(N2CCC(F)(F)C2)c2nnn(Cc3ccccc3Cl)c2n1` [Example 86, 3-[(2-Chlorophenyl)methyl]-7-(3,3-difluoropyrrolidin-1-yl)-5-ethylsulfonyltriazolo [4,5-d]pyrimidine]?
EC50 (human CB1 receptor): > 10 µM; EC50 (human CB2 receptor): 86.6 nM

How did the EC50 (human CB1 receptor) turn out when `CC(C)(C)COc1nc(N2CCC(F)(F)C2)c2nnn(Cc3ccccc3Cl)c2n1` [Example 52, 3-[(2-Chlorophenyl)methyl]-7-(3,3-difluoropyrrolidin-1-yl)-5-(2,2-dimethylpropoxy) triazolo[4,5-d]pyrimidine] was run?
The EC50 was over 10 µM.

What about the EC50 (human CB2 receptor) of the same compound?
Its EC50 is 0.8 nM.

`C[C@]1(O)CCN(c2nc(N3CCOCC3)nc3c2nnn3Cc2ncccc2Cl)C1` [Example 34, (3S)-1-[3-[(3-chloropyridin-2-yl)methyl]-5-morpholin-4-yltriazolo[4,5-d]pyrimidin-7-yl]-3-methylpyrrolidin-3-ol] was tested. Which EC50 (human CB1 receptor) did it give?
The EC50 was over 10 µM.

What about the EC50 (human CB2 receptor) of the same compound?
Its EC50 is 45.3 nM.

What does the source list for `CC(C)(C)COc1nc(N2CCC(F)(F)C2)c2nnn(Cc3ccccc3S(C)(=O)=O)c2n1` [Example 66, 7-(3,3-Difluoropyrrolidin-1-yl)-5-(2,2-dimethylpropoxy)-3-[(2-methylsulfonylphenyl)methyl]triazolo[4,5-d]pyrimidine]?
EC50 (human CB1 receptor): > 10 µM; EC50 (human CB2 receptor): 3.9 nM

Which EC50 (human CB1 receptor) does the source give for `CC(C)(C)Nc1nc(N2CCC(F)(F)C2)c2nnn(Cc3ccccc3Cl)c2n1` [Example 12, N-tert-Butyl-3-[(2-chlorophenyl)methyl]-7-(3,3-difluoropyrrolidin-1-yl)triazolo[4,5-d]pyrimidin-5-amine] here?
The EC50 was 0.365 µM.

What about the EC50 (human CB2 receptor) of the same compound?
The EC50 was 0.9 nM.

With `CC(C)c1nc(N2CCC(F)(F)C2)c2nnn(Cc3ccccc3Cl)c2n1` [Example 3, 3-[(2-Chlorophenyl)methyl]-7-(3,3-difluoropyrrolidin-1-yl)-5-isopropyl-triazolo[4,5-d]pyrimidine] as the compound, how does the EC50 (human CB1 receptor) read?
The EC50 was 0.77 µM.

And the EC50 (human CB2 receptor)?
Its EC50 is 0.5 nM.

Which EC50 (human CB1 receptor) does the source give for `C[C@]1(O)CCN(c2nc(N3CCOCC3)nc3c2nnn3Cc2ccccc2Cl)C1` [Example 32, (3S)-1-[3-[(2-Chlorophenyl)methyl]-5-morpholino-triazolo[4,5-d]pyrimidin-7-yl]-3-methyl-pyrrolidin-3-ol] here?
Its EC50 is over 10 µM.

And the EC50 (human CB2 receptor)?
The EC50 was 9.6 nM.

With `Cc1nnc(Cn2nnc3c(N4CCC(F)(F)C4)nc(O[C@@H](C)C(F)(F)F)nc32)o1` [Example 71, 2-[[7-(3,3-Difluoropyrrolidin-1-yl)-5-[(2S)-1,1,1-trifluoropropan-2-yl]oxytriazolo[4,5-d]pyrimidin-3-yl]methyl]-5-methyl-1,3,4-oxadiazole] as the compound, how does the EC50 (human CB1 receptor) read?
The EC50 was over 10 µM.

And the EC50 (human CB2 receptor)?
Its EC50 is 214 nM.

`C[C@H](Oc1nc(N2CCC(F)(F)C2)c2nnn(Cc3ccccc3C(F)(F)F)c2n1)C(F)(F)F` [Example 68, 7-(3,3-Difluoropyrrolidin-1-yl)-3-[[2-(trifluoromethyl)phenyl]methyl]-5-[(2S)-1,1,1-trifluoropropan-2-yl]oxytriazolo[4,5-d]pyrimidine] was tested. Which EC50 (human CB1 receptor) did it give?
Its EC50 is over 10 µM.

And the EC50 (human CB2 receptor)?
Its EC50 is 0.4 nM.

Which results are given for `COCCS(=O)(=O)c1nc(N2CCC(F)(F)C2)c2nnn(Cc3ccccc3Cl)c2n1` [Example 96, 3-[(2-Chlorophenyl)methyl]-7-(3,3-difluoropyrrolidin-1-yl)-5-(2-methoxyethylsulfonyl)triazolo[4,5-d]pyrimidine]?
EC50 (human CB1 receptor): > 10 µM; EC50 (human CB2 receptor): 5.1 nM

`COc1ccc(Cn2nnc3c(N4CC[C@@](C)(O)C4)nc(NC(C)(C)C)nc32)cc1` [Example 31, (3R)-1-[5-(tert-Butylamino)-3-[(4-methoxyphenyl)methyl]triazolo[4,5-d]pyrimidin-7-yl]-3-methylpyrrolidin-3-ol] was tested. Which EC50 (human CB1 receptor) did it give?
The EC50 was over 10 µM.

And the EC50 (human CB2 receptor)?
The EC50 was 56 nM.

Which results are given for `FCCOc1nc(N2CCC(F)(F)C2)c2nnn(Cc3ccccc3Cl)c2n1` [Example 46, 3-[(2-Chlorophenyl)methyl]-7-(3,3-difluoropyrrolidin-1-yl)-5-(2-fluoroethoxy) triazolo[4,5-d]pyrimidine]?
EC50 (human CB1 receptor): > 10 µM; EC50 (human CB2 receptor): 5.3 nM
